# Target: Bromodomain-containing protein 4 (Homo sapiens, UniProt O60885)
# Experiment: Time Resolved Fluorescence Resonance Energy Transfer (TR-FRET) Assay: The binding of compounds to bromodomain BRD4 (44-168), BRD4 (333-460), and BRD4 (1-477 or 44-460) was assessed using a time resolved fluorescent resonance energy transfer binding assay (1), that measures the binding of a fluorescently labeled probe molecule to the bromodomain protein. The bromodomain protein, fluorescent probe molecule (either a biotinylated histone peptide or a fluorescently labeled small molecule), and dose-responsed test compound are incubated together to reach thermodynamic equilibrium. In the absence of a test compound, the bromodomain and small molecule are bound, resulting in a high fluorescent signal. In the presence of a sufficient concentration of inhibitor, this intercation is disrupted resulting in a loss of fluorescent resonance energy transfer.
structure (smiles),measurement,value
Cc1noc(C)c1-c1cc(C(N)=O)c2c(c1)c1ccc(N3CCOCC3)cc1n2CC1CC1,IC50,< 5 µM
Cc1noc(C)c1-c1cc(C(N)=O)c2c(c1)c1ccc(C(C)(C)O)cc1n2S(C)(=O)=O,IC50,< 0.05 µM
COC1CN(C(=O)c2ccc3c4cc(-c5c(C)noc5C)cc(C(N)=O)c4n(S(=O)(=O)C4CC4)c3c2)C1,IC50,< 0.05 µM
Cc1noc(C)c1-c1cc(C(N)=O)c2c(c1)c1ccc(N3CCCC3=O)cc1n2CC1CC1,IC50,< 0.05 µM
Cc1noc(C)c1-c1cc(C(=O)NCC2CC2)c2c(c1)c1c(S(C)(=O)=O)cccc1n2CC1CC1,IC50,< 0.5 µM
COC(=O)Nc1ccc2c3cc(-c4c(C)noc4C)cc(C(N)=O)c3n(CC3CC3)c2c1,IC50,< 0.5 µM
Cc1noc(C)c1-c1cc(C(N)=O)c2c(c1)c1ccc(S(C)(=O)=O)cc1n2S(=O)(=O)C1CC1,IC50,< 0.5 µM
Cc1noc(C)c1-c1cc(C(N)=O)c2c(c1F)c1ccc(C(=O)N3C[C@@H](C)O[C@@H](C)C3)cc1n2CC1CC1,IC50,< 0.05 µM

# Reference: ChEMBL document CHEMBL5725474, “Carbazole compounds useful as bromodomain inhibitors” (2018)
